The record followed here is patent publication US20180220650A1, “PLANT GROWTH REGULATOR COMPOUNDS” (Syngenta Participations AG, priority 2015, published 2018).

Read-outs that look alike come from different tables or passages of the source. Some results are limits rather than exact numbers.

A short description of data set [1]: Soil stability assay (Stein clay loam soil). In kind it is physicochemical. As to conditions: for Soil Stability (t1/2, hours): Stein soil:sand 1:1, 0.3 μg per gram of soil, dark, 20° C. The source says:
It is highly desirable that agrochemicals applied to soil in order to deliver a beneficial biological effect can exist in the soil for a prolonged period of time with minimal degradation. However, a biologically active agrochemical compound may undergo chemical transformation in soil, leading to decreased levels of activity and a decrease in a desired biological effect. Simple laboratory degradation studies can be used to evaluate the disappearance due to biotic and abiotic processes of a compound in soil. The time taken for a compound to degrade in soil allows the estimation of their half-life (t1/2), which corresponds to the time in which 50% of the compound under evaluation is degraded in soil. […] Stock standard solutions were prepared by dissolving 1 mg of each test compound (ie, compounds (Ib-1, Ib-19 and AB01) in acetonitrile. The stock standard solutions were stored at 6° C. Working standard solutions were then obtained by a series of dilutions of the stock standard solutions for an external calibration. A treatment solution of 100 μg/mL concentration for each test compound was prepared in acetonitrile:water (6:4)(v:v). Soil samples used for this soil stability assay were collected at the Syngenta Research Centre location in Stein (Switzerland). The soil was classified as clay loam soil. Certain physical properties of the soil are described in Table 4. 2 mm sieved Stein soil was mixed with sand at ratio 1:1 prior to starting the laboratory soil degradation experiment. 10 g of the sand-soil mix (air-dried basis) was weighed into 50 ml Corning® polypropylene centrifuge tubes and soil moisture was adjusted at 45% of the field capacity. Chemical application was performed by applying 30 μl of a 100 μg/mL solution of each test compound to 10 g soil vessel corresponding to a final concentration of 0.3 μg test compound per gram of soil. Three replicates were considered for each test compound. Treated tubes were incubated in the dark at 20° C.±0.5 with 85% relative humidity. For the estimation of half-life, different sampling times of 0, 4, 8, 24, 72, 168 and 336 hours were considered. […] The half-lives were calculated by an exponential regression analysis (single first order kinetic model) plotting the percentage of recovered compound in soil against the time. […] After centrifugation at 3500 rpm for 5 minutes, an aliquot of the supernatant was collected and analyzed via UPLC-MS (Waters Acquity UPLC-MS PDA-Detection: 254 nm- and SQD-Zspray ESI, APCI, ESCi®-; Waters Acquity UPLC Column HSS T3 2.1×30 mm-1.8 μm; Gradient mobile phase with H2O:MeOH (9:1, v:v)+0.1% HCOOH (solvent A) and MeCN+0.1% HCOOH (solvent B); 30% to 100% of solvent B in 1 min, then 100% of solvent B for 0.45 min and then down to 30% solvent B at 1.5 min.; flow rate 0.75 mL·min−1).

A short description of data set [2]: Hydrolytic stability assay. The class given is physicochemical. As to conditions: for half-life: aqueous buffer with acetonitrile co-solvent, 40° C., read-out: Hydrolytic Stability (t1/2, hours) (converted); for loss of test compound (definitive half-life could not be determined): pH7. The procedure:
The objective of the hydrolytic stability assay was to determine the chemical stability of the individual test compounds in a strictly controlled and reproducible environment allowing a comparison of their in-vitro stability under aqueous conditions at pH7 and 9. Due to low solubility of these analogues, a percentage of acentonitrile is added to the system to aid solubility (nominally 10-50%). Prior to conducting the individual assays, 1000 ppm stock solutions of all four test compounds were prepared in methanol. The reagents used in the assays were prepared as follows: 20 mM buffer solution: A stock of 20 mM mixed acetate, borate and phosphate buffer was prepared and the pH adjusted to 7 or 9 as required. Test solutions were prepared in LC vials for each test compound in the following manner: Mobile Phase Control: Mobile phase (1 ml)+compound (0.5-40 μl); Hydrolytic Stability: Buffer (1 ml)+compound (0.5-40 μl). The mobile phase and buffer were dispensed into separate glass LC vials, placed into a thermostatted autosampler set at 40° C., and allowed to equilibrate for 30 minutes prior to starting the individual assays. Reactions were initiated by addition of compound and monitored through a series of repeat injections made directly from the vial into an HPLC system at regular time intervals. Initial and subsequent measurements of peak area attributable to the test compound were used to fit exponential half-lives and calculate first-order rate constants. […] Consequently, the percent remaining was recorded at the last assessment time.

The next data set concerns NK Falkone corn seeds. Nature of the data set: Corn seed germination under cold stress. In kind it is in vivo. As to conditions: 15° C. The protocol: The effect of compounds of Formula (I) on the germination of NK Falkone corn seeds under cold stress was evaluated as follows.
NK Falkone corn seeds were sorted by size using 2 sieves, one excluding very big seeds and the other with round holes of 8 to 9 mm diameter. The seeds retained by the latter sieve were used for the germination test.
The corn seeds were placed in 24 well plates (each plate was considered as one experimental unit or replicate). Germination was initiated by the addition of 250 μl of distilled water containing 0.5% DMSO per well as a mean for compound solubilization. 8 replicates (ie, 8 plates) were used for each treatment characterization. Plates were sealed using seal foil (Polyolefin Art. Nr. 900320) from HJ-BIOANALYTIK. All plates were placed horizontally on trolleys in a climatic chamber at 15° C. or 23° C. in complete darkness. The experiment was laid out in a completely randomized design in climatic chamber with 75% Relative Humidity. Foils were pierced, one hole per well using a syringe after 72 hours for experiments performed at 15° C. and after 24 hours for experiments performed at 23° C.
Germination was followed over time by taking photographs at different time points. Image analysis was performed automatically with a macro which was developed using the Image J software. A dynamic analysis of germination was carried out by fitting a logistic curve. Three parameters were calculated from the logistic curve: the T50; the slope and the plateau. All three parameters have a high agronomical relevance and are key requirements to ensure a good early crop-establishment. The T50, slope and plateau for a selection of compounds are outlined in Table 2 below. All the values are expressed as percentages compared to an untreated control. All the three parameters are calculated considering 8 replicates and the kinetic parameters are separately determined for each germination curve. Data in bold indicate germination enhancing statistically significant differences between treated seeds and untreated control (p<0.05). • T50 corresponds to the time needed for half of the seed population to germinate. Higher negative %-values indicate faster germination. • Slope indicates how synchronous the germination of the seed population is. Positive values indicate steeper curve. The steeper the curve, the better and more uniform the germination is. • Plateau provides information about the final germination rate and it is expressed in percentage.
Positive values indicate a larger number of seeds germinated in a given period.

Take `CC1=CC(O/C=C2/C(=O)O[C@]3(C)CC[C@H]4C(C)(C)CCC[C@]4(C)[C@@H]23)OC1=O` (stereo partly shown) [AB01]: the “Soil Stability (t1/2, hours)” value in data set [1] was determined as 38 h. The values for the half-life in data set [2] (pH 7 + 25% MeCN) and in data set [2] (pH 9 + 25% MeCN) were over 17.6 h and 3 h, respectively. Further, in data set [2], the “loss of test compound (definitive half-life could not be determined)” value is on record as “insufficient loss was observed”. Besides, the “Plateau (% vs control)” value with NK Falkone corn seeds (rate 0.04 μM) is listed as −2.20 % vs control; with NK Falkone corn seeds (rate 0.2 μM), −2.20 % vs control; with NK Falkone corn seeds (rate 1 μM) it was 3.00 % vs control; with NK Falkone corn seeds (rate 5 μM) it was 1.30 % vs control. Further, the “Slope (% vs control)” value came out at 6.50 % vs control in the data set on NK Falkone corn seeds (rate 0.04 μM), 10.00 % vs control in the data set with NK Falkone corn seeds (rate 0.2 μM), 27.50 % vs control in the data set on NK Falkone corn seeds (rate 1 μM) and 16.50 % vs control with NK Falkone corn seeds (rate 5 μM). Moreover, the “T50 (% vs control)” value was −1.80 % vs control with NK Falkone corn seeds (rate 0.04 μM), 0.50 % vs control in the data set with NK Falkone corn seeds (rate 0.2 μM), −2.30 % vs control with NK Falkone corn seeds (rate 1 μM) and −1.90 % vs control in the data set with NK Falkone corn seeds (rate 5 μM).

`CC1=C[C@H](O/C=C2/C(=O)O[C@@H]3c4ccccc4C[C@H]23)OC1=O` [GR-24]: the “Plateau (% vs control)” value in the data set with NK Falkone corn seeds (rate 0.08 μM, final germination rate) is 2.10 % vs control; in the data set with NK Falkone corn seeds (rate 0.4 μM), 0.90 % vs control; in the data set with NK Falkone corn seeds (rate 2 μM), −1.40 % vs control; in the data set on NK Falkone corn seeds (rate 10 μM), 1.50 % vs control. Further, the “Slope (% vs control)” value with NK Falkone corn seeds (rate 0.08 μM, synchrony of germination) is on record as −8.50 % vs control; in the data set on NK Falkone corn seeds (rate 0.4 μM), 0.20 % vs control; with NK Falkone corn seeds (rate 2 μM), −0.80 % vs control; in the data set with NK Falkone corn seeds (rate 10 μM), 7.40 % vs control. In addition, the “T50 (% vs control)” value in the data set with NK Falkone corn seeds (rate 0.08 μM, time for half of seeds to germinate) was −0.10 % vs control; in the data set on NK Falkone corn seeds (rate 0.4 μM), −1.80 % vs control; in the data set on NK Falkone corn seeds (rate 2 μM), −0.50 % vs control; with NK Falkone corn seeds (rate 10 μM), −2.40 % vs control.

Turning to `CC1=C(C)C(O/C=C2/C(=O)O[C@]3(C)CC[C@H]4C(C)(C)CCC[C@]4(C)[C@@H]23)N(c2ccccc2)C1=O` (stereo partly shown) [Ib-1], in data set [1], the “Soil Stability (t1/2, hours)” value is over 720 h. For the same compound, the results for the half-life in data set [2] (pH 7 + 25% MeCN) and in data set [2] (pH 9 + 25% MeCN) were over 18.1 h and over 17.8 h, respectively.

Regarding `CC1=C(C)C(O/C=C2/C(=O)O[C@]3(C)CC[C@H]4C(C)(C)CCC[C@]4(C)[C@@H]23)OC1=O` (stereo partly shown) [Ib-19], the “soil stability compared to prior art compound AB01” value in data set [1] (Stein soil) is listed as “superior soil stability”. In data set [1], the “Soil Stability (t1/2, hours)” value is 280 h. In addition, the half-life in data set [2] (pH 7 + 25% MeCN) was over 17.6 h; in data set [2] (pH 9 + 25% MeCN) it was 19.4 h. Further, the “loss of test compound (definitive half-life could not be determined)” value in data set [2] is “insufficient loss was observed”. The “hydrolytic stability compared to the prior art compound” value in data set [2] (pH9) was “superior hydrolytic stability”. Further, the “Plateau (% vs control)” value is 7.10 % vs control with NK Falkone corn seeds (rate 0.04 μM), −4.60 % vs control in the data set with NK Falkone corn seeds (rate 0.2 μM), 3.00 % vs control in the data set with NK Falkone corn seeds (rate 1 μM) and 8.30 % vs control in the data set with NK Falkone corn seeds (rate 5 μM). The “Slope (% vs control)” value in the data set on NK Falkone corn seeds (rate 0.04 μM) was 13.60 % vs control; with NK Falkone corn seeds (rate 0.2 μM), 11.40 % vs control; with NK Falkone corn seeds (rate 1 μM), 7.60 % vs control; in the data set on NK Falkone corn seeds (rate 5 μM) it was 24.20 % vs control. The “T50 (% vs control)” value is −1.10 % vs control in the data set with NK Falkone corn seeds (rate 0.04 μM), −3.20 % vs control with NK Falkone corn seeds (rate 0.2 μM), 0.20 % vs control in the data set with NK Falkone corn seeds (rate 1 μM) and −2.80 % vs control in the data set with NK Falkone corn seeds (rate 5 μM).
